Literature values as cited in article PMC2988205 (Medicinal Chemistry Research, 2009).

System: β3-AR
Conditions: read-out: β3 EC50; β3-AR partial agonist; ref Naylor et al., 1998

For `C[C@H](Cc1ccc(OCC(=O)O)cc1)NC[C@H](O)c1cccc(Cl)c1` [BRL-37344], the EC50 is listed as 450 nM.
